We go through 1 molecule from publication PMC4325424 (Cancer cell, 2015).

For this assay, the target named is T1, glutathione peroxidase 1 (GPx1) (Homo sapiens, UniProt P07203).
T1 sequence (P07203 1-203): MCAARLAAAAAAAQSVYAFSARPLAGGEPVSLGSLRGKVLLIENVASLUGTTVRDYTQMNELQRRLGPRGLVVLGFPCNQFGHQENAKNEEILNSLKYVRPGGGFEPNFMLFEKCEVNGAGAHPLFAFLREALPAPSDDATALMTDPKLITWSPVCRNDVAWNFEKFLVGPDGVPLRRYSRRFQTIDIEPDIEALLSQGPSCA
The assay is described as follows: radiometric […]-fumarate binding to bead-bound flag-GPx1.

For `O=C(O)/C=C/C(=O)O` [fumarate], the Kd (usually the concentration at which binding is half-saturated) was 75.5 ± 5.22 µM.
